Test results published in PMC6566410, “Novel Diamide-Based Benzenesulfonamides as Selective Carbonic Anhydrase IX Inhibitors Endowed with Antitumor Activity: Synthesis, Biological Evaluation and In Silico Insights” (International Journal of Molecular Sciences, 2019).

Columns and labels:
Experiment in all cases: NCI one-dose SRB assay
[1] = tested on: SR; format: cell-based, human; conditions: SR (Leukemia), 1.00E-5 Molar
Experimental: First, all diamide-based benzenesulfonamides herein reported 5a–h were screened for their antitumor activity at one dose (10^−5 M) assay against a panel of sixty cancer cell lines through the National Cancer Institute (NCI) Developmental Therapeutic Program (www.dtp.nci.nih.gov), according to US-NCI protocol. The cell growth and cell viability were evaluated using the sulforhodamine B (SRB) colorimetric assay.
This assay was carried out according to the protocol of the Drug Evaluation Branch, NCI, Bethesda. The cell growth and cell viability were evaluated using the sulforhodamine B (SRB) colorimetric assay, as reported earlier.

[2] = tested on: RXF 393; format: cell-based; conditions: Homo sapiens, RXF 393 (Renal Cancer), 1.00E-5 Molar, read-out: Growth Percent
Summary of the method: (§1)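 Single-dose screen, 10^−5 M, NCI-60 panel per DTP protocol; growth/viability by SRB colorimetry.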

[3] = tested on: NCI-H322M; format: cell-based; conditions: Homo sapiens, NCI-H322M (Non-Small Cell Lung Cancer), 1.00E-5 Molar, read-out: Growth Percent
Summary of the method: as §1

[4] = tested on: A549/ATCC; format: cell-based; conditions: Homo sapiens, A549/ATCC (Non-Small Cell Lung Cancer), 1.00E-5 Molar, read-out: Growth Percent
Summary of the method: as §1

[5] = tested on: HOP-62; format: cell-based; conditions: Homo sapiens, HOP-62 (Non-Small Cell Lung Cancer), 1.00E-5 Molar, read-out: Growth Percent
Summary of the method: as §1

[6] = tested on: HS 578T; format: cell-based; conditions: Homo sapiens, HS 578T (Breast Cancer), 1.00E-5 Molar, read-out: Growth Percent
Summary of the method: as §1

[7] = tested on: ACHN; format: cell-based; conditions: Homo sapiens, ACHN (Renal Cancer), 1.00E-5 Molar, read-out: Growth Percent
Summary of the method: as §1

[8] = tested on: COLO 205; format: cell-based; conditions: Homo sapiens, COLO 205 (Colon Cancer), 1.00E-5 Molar, read-out: Growth Percent
Summary of the method: as §1

[9] = tested on: HCT-15; format: cell-based; conditions: Homo sapiens, HCT-15 (Colon Cancer), 1.00E-5 Molar, read-out: Growth Percent
Summary of the method: as §1

[10] = tested on: SW-620; format: cell-based; conditions: Homo sapiens, SW-620 (Colon Cancer), 1.00E-5 Molar, read-out: Growth Percent
Summary of the method: as §1

[11] = tested on: TK-10; format: cell-based; conditions: Homo sapiens, TK-10 (Renal Cancer), 1.00E-5 Molar, read-out: Growth Percent
Summary of the method: as §1

[12] = tested on: HT29; format: cell-based; conditions: Homo sapiens, HT-29, HT29 (Colon Cancer), 1.00E-5 Molar, read-out: Growth Percent
Summary of the method: as §1

[13] = tested on: U251; format: cell-based; conditions: Homo sapiens, U-251, U251 (CNS Cancer), 1.00E-5 Molar, read-out: Growth Percent
Summary of the method: as §1

[14] = tested on: SK-OV-3; format: cell-based; conditions: Homo sapiens, SK-OV-3 (Ovarian Cancer), 1.00E-5 Molar, read-out: Growth Percent
Summary of the method: as §1

[15] = tested on: PC-3; format: cell-based; conditions: Homo sapiens, PC-3 (Prostate Cancer), 1.00E-5 Molar, read-out: Growth Percent
Summary of the method: as §1

[16] = tested on: NCI-H522; format: cell-based; conditions: Homo sapiens, NCI-H522 (Non-Small Cell Lung Cancer), 1.00E-5 Molar, read-out: Growth Percent
Summary of the method: as §1

[17] = tested on: HL-60(TB); format: cell-based; conditions: Homo sapiens, HL-60(TB) (Leukemia), 1.00E-5 Molar, read-out: Growth Percent
Summary of the method: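 NCI-60 one-dose protocol: compound at 10^−5 M; growth and viability quantified with SRB dye.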

[18] = tested on: HCC-2998; format: cell-based; conditions: Homo sapiens, HCC-2998 (Colon Cancer), 1.00E-5 Molar, read-out: Growth Percent
Summary of the method: as §1

[19] = tested on: MDA-MB-435; format: cell-based; conditions: Homo sapiens, MDA-MB-435 (Melanoma), 1.00E-5 Molar, read-out: Growth Percent
Summary of the method: as §1

[20] = tested on: K-562; format: cell-based; conditions: Homo sapiens, K562, K-562 (Leukemia), 1.00E-5 Molar, read-out: Growth Percent
Summary of the method: as §1

[21] = tested on: T-47D; format: cell-based; conditions: Homo sapiens, T47D, T-47D (Breast Cancer), 1.00E-5 Molar, read-out: Growth Percent
Summary of the method: as §1

[22] = tested on: M14; format: cell-based; conditions: Homo sapiens, M14 (Melanoma), 1.00E-5 Molar, read-out: Growth Percent
Summary of the method: as §1

[23] = tested on: UACC-257; format: cell-based; conditions: Homo sapiens, UACC-257 (Melanoma), 1.00E-5 Molar, read-out: Growth Percent
Summary of the method: as §1

[24] = tested on: MDA-MB-231/ATCC; format: cell-based; conditions: Homo sapiens, MDA-MB-231/ATCC (Breast Cancer), 1.00E-5 Molar, read-out: Growth Percent
Summary of the method: as §1

[25] = tested on: CCRF-CEM; format: cell-based; conditions: Homo sapiens, CCRF-CEM (Leukemia), 1.00E-5 Molar, read-out: Growth Percent
Summary of the method: as §1

[26] = tested on: NCI/ADR-RES; format: cell-based; conditions: Homo sapiens, NCI/ADR-RES (Ovarian Cancer), 1.00E-5 Molar, read-out: Growth Percent
Summary of the method: as §1

[27] = tested on: SK-MEL-2; format: cell-based; conditions: Homo sapiens, SK-MEL-2 (Melanoma), 1.00E-5 Molar, read-out: Growth Percent
Summary of the method: as §1

[28] = tested on: SNB-19; format: cell-based; conditions: Homo sapiens, SNB-19 (CNS Cancer), 1.00E-5 Molar, read-out: Growth Percent
Summary of the method: as §1

[29] = tested on: CAKI-1; format: cell-based; conditions: Homo sapiens, CAKI-1 (Renal Cancer), 1.00E-5 Molar, read-out: Growth Percent
Summary of the method: as §1

[30] = tested on: NCI-H226; format: cell-based; conditions: Homo sapiens, NCI-H226 (Non-Small Cell Lung Cancer), 1.00E-5 Molar, read-out: Growth Percent
Summary of the method: as §1

[31] = tested on: MOLT-4; format: cell-based; conditions: Homo sapiens, MOLT-4 (Leukemia), 1.00E-5 Molar, read-out: Growth Percent
Summary of the method: as §1

SMILES	Growth Percent [1] [%]	activity at 10 µM [2] [%]	activity at 10 µM [3] [%]	activity at 10 µM [4] [%]	activity at 10 µM [5] [%]	activity at 10 µM [6] [%]	activity at 10 µM [7] [%]	activity at 10 µM [8] [%]	activity at 10 µM [9] [%]	activity at 10 µM [10] [%]	activity at 10 µM [11] [%]	activity at 10 µM [12] [%]	activity at 10 µM [13] [%]	activity at 10 µM [14] [%]	activity at 10 µM [15] [%]	activity at 10 µM [16] [%]	activity at 10 µM [17] [%]	activity at 10 µM [18] [%]	activity at 10 µM [19] [%]	activity at 10 µM [20] [%]	further results
COc1ccc(C=C(NC(=O)c2ccccc2)C(=O)Nc2ccc(S(N)(=O)=O)cc2)c(OC)c1 [Compound 5f, N-(1-(2,4-Dimethoxyphenyl)-3-oxo-3-((4-sulfamoylphenyl)amino)prop-1-en-2-yl)benzamide]	95.41	108	102	94.9	117	106	103	118	99.1	107	112	106	100	101	96.3	88.2	103	110	97	116	activity at 10 µM [21]: 101%; activity at 10 µM [22]: 111%; activity at 10 µM [23]: 99.6%; activity at 10 µM [24]: 105%; activity at 10 µM [25]: 107%; activity at 10 µM [26]: 109%; activity at 10 µM [27]: 102%; activity at 10 µM [28]: 102%; activity at 10 µM [29]: 92.3%; activity at 10 µM [30]: 98.4%; activity at 10 µM [31]: 114%
COc1ccc(C=C(NC(=O)c2ccccc2)C(=O)Nc2ccc(S(N)(=O)=O)cc2)cc1OC [Compound 5g, N-(1-(3,4-Dimethoxyphenyl)-3-oxo-3-((4-sulfamoylphenyl)amino)prop-1-en-2-yl)benzamide]	82.62	118	110	106	102	94.8	99.8	110	101	102	110	106	96.3	97.1	103	89.1	101	106	107	108	activity at 10 µM [21]: 100%; activity at 10 µM [22]: 113%; activity at 10 µM [23]: 101%; activity at 10 µM [24]: 105%; activity at 10 µM [25]: 109%; activity at 10 µM [26]: 104%; activity at 10 µM [27]: 102%; activity at 10 µM [28]: 100%; activity at 10 µM [29]: 104%; activity at 10 µM [30]: 93.3%; activity at 10 µM [31]: 107%
